Test results taken from the supplement of paper PMC10307832.

What was measured:
Assay in all cases: relative viability (nuclei count vs DMSO), 5 days (fraction); higher = more cells survive
NCI-H322M = tested on: NCI-H322M
How it was run: (§1)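 Relative viability is defined as nuclei in treated wells over nuclei in vehicle wells. Duplicate plates were run and medians reported. Lung cancer cell lines in 1536-well plates were dosed by pin tool one day after seeding, with one drug or with a fixed anchor-drug dose plus five library-drug doses (not always all listed) in √10 steps, and nuclei were counted after 5 days.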

NCI-H460 = tested on: NCI-H460
How it was run: as §1

NCI-H2087 = tested on: NCI-H2087
How it was run: as §1

EKVX = tested on: EKVX
How it was run: as §1

NCI-H2009 = tested on: NCI-H2009
How it was run: as §1

NCI-H1993 = tested on: NCI-H1993
How it was run: as §1

SK-MES-1 = tested on: SK-MES-1
How it was run: as §1

CAL-12T = tested on: CAL-12T
How it was run: as §1

EPLC-272H = tested on: EPLC-272H
How it was run: as §1

NCI-H2342 = tested on: NCI-H2342
How it was run: as §1

H3255 = tested on: H3255
How it was run: as §1

COR-L 105 = tested on: COR-L 105
How it was run: as §1

NCI-H1975 = tested on: NCI-H1975
How it was run: as §1

ABC-1 = tested on: ABC-1
How it was run: as §1

NCI-H441 = tested on: NCI-H441
How it was run: as §1

ChaGo-K-1 = tested on: ChaGo-K-1
How it was run: as §1

HCC-827 = tested on: HCC-827
How it was run: as §1

NCI-H1792 = tested on: NCI-H1792
How it was run: as §1

NCI-H2085 = tested on: NCI-H2085
How it was run: as §1

HCC-366 = tested on: HCC-366
How it was run: as §1

NCI-H1355 = tested on: NCI-H1355
How it was run: as §1

NCI-H2228 = tested on: NCI-H2228
How it was run: as §1

SMILES: CCNC(=O)c1noc(-c2cc(C(C)C)c(O)cc2O)c1-c1ccc(CN2CCOCC2)cc1 [Luminespib] + Cc1nc(Nc2ncc(C(=O)Nc3c(C)cccc3Cl)s2)cc(N2CCN(CCO)CC2)n1 [Dasatinib] (partner 0.075 µM)
- relative viability (NCI-H322M; first compound 0.002 µM): 0.234
- relative viability (NCI-H322M; first compound 0.006325 µM): 0.262
- relative viability (NCI-H322M; first compound 0.02 µM): 0.215
- relative viability (NCI-H322M; first compound 0.06325 µM): 0.268
- relative viability (NCI-H322M; first compound 0.2 µM): 0.276
- relative viability (NCI-H460; first compound 0.002 µM): 0.462
- relative viability (NCI-H460; first compound 0.006325 µM): 0.481
- relative viability (NCI-H460; first compound 0.02 µM): 0.251
- relative viability (NCI-H460; first compound 0.06325 µM): 0.0185
- relative viability (NCI-H460; first compound 0.2 µM): 0.0168
- relative viability (NCI-H2087; first compound 0.002 µM): 0.757
- relative viability (NCI-H2087; first compound 0.006325 µM): 0.441
- relative viability (NCI-H2087; first compound 0.02 µM): 0.317
- relative viability (NCI-H2087; first compound 0.06325 µM): 0.102
- relative viability (NCI-H2087; first compound 0.2 µM): 0.086
- relative viability (EKVX; first compound 0.002 µM): 0.311
- relative viability (EKVX; first compound 0.006325 µM): 0.509
- relative viability (EKVX; first compound 0.02 µM): 0.403
- relative viability (EKVX; first compound 0.06325 µM): 0.515
- relative viability (EKVX; first compound 0.2 µM): 0.393
- relative viability (NCI-H2009; first compound 0.002 µM): 0.342
- relative viability (NCI-H2009; first compound 0.006325 µM): 0.251
- relative viability (NCI-H2009; first compound 0.02 µM): 0.222
- relative viability (NCI-H2009; first compound 0.06325 µM): 0.0645
- relative viability (NCI-H2009; first compound 0.2 µM): 0.0808
- relative viability (NCI-H1993; first compound 0.002 µM): 0.633
- relative viability (NCI-H1993; first compound 0.006325 µM): 0.534
- relative viability (NCI-H1993; first compound 0.02 µM): 0.431
- relative viability (NCI-H1993; first compound 0.06325 µM): 0.331
- relative viability (NCI-H1993; first compound 0.2 µM): 0.353
- relative viability (SK-MES-1; first compound 0.002 µM): 0.333
- relative viability (SK-MES-1; first compound 0.006325 µM): 0.376
- relative viability (SK-MES-1; first compound 0.02 µM): 0.217
- relative viability (SK-MES-1; first compound 0.06325 µM): 0.0911
- relative viability (SK-MES-1; first compound 0.2 µM): 0.0956
- relative viability (CAL-12T; first compound 0.002 µM): 0.519
- relative viability (CAL-12T; first compound 0.006325 µM): 0.485
- relative viability (CAL-12T; first compound 0.02 µM): 0.147
- relative viability (CAL-12T; first compound 0.06325 µM): 0.0553
- relative viability (CAL-12T; first compound 0.2 µM): 0.0762
- relative viability (EPLC-272H; first compound 0.002 µM): 0.365
- relative viability (EPLC-272H; first compound 0.006325 µM): 0.349
- relative viability (EPLC-272H; first compound 0.06325 µM): 0.35
- relative viability (EPLC-272H; first compound 0.2 µM): 0.0778
- relative viability (NCI-H2342; first compound 0.002 µM): 0.351
- relative viability (NCI-H2342; first compound 0.006325 µM): 0.33
- relative viability (NCI-H2342; first compound 0.02 µM): 0.287
- relative viability (NCI-H2342; first compound 0.06325 µM): 0.259
- relative viability (NCI-H2342; first compound 0.2 µM): 0.311
- relative viability (H3255; first compound 0.002 µM): 0.375
- relative viability (H3255; first compound 0.006325 µM): 0.311
- relative viability (H3255; first compound 0.06325 µM): 0.406
- relative viability (H3255; first compound 0.2 µM): 0.197
- relative viability (COR-L 105; first compound 0.002 µM): 0.344
- relative viability (COR-L 105; first compound 0.006325 µM): 0.322
- relative viability (COR-L 105; first compound 0.02 µM): 0.248
- relative viability (COR-L 105; first compound 0.06325 µM): 0.157
- relative viability (COR-L 105; first compound 0.2 µM): 0.145
- relative viability (NCI-H1975; first compound 0.002 µM): 0.382
- relative viability (NCI-H1975; first compound 0.006325 µM): 0.347
- relative viability (NCI-H1975; first compound 0.02 µM): 0.14
- relative viability (NCI-H1975; first compound 0.06325 µM): 0.093
- relative viability (NCI-H1975; first compound 0.2 µM): 0.0892
- relative viability (ABC-1; first compound 0.002 µM): 0.691
- relative viability (ABC-1; first compound 0.006325 µM): 0.526
- relative viability (ABC-1; first compound 0.02 µM): 0.446
- relative viability (ABC-1; first compound 0.06325 µM): 0.197
- relative viability (ABC-1; first compound 0.2 µM): 0.193
- relative viability (NCI-H441; first compound 0.002 µM): 0.579
- relative viability (NCI-H441; first compound 0.006325 µM): 0.649
- relative viability (NCI-H441; first compound 0.02 µM): 0.329
- relative viability (NCI-H441; first compound 0.06325 µM): 0.132
- relative viability (NCI-H441; first compound 0.2 µM): 0.114
- relative viability (ChaGo-K-1; first compound 0.002 µM): 0.634
- relative viability (ChaGo-K-1; first compound 0.006325 µM): 0.648
- relative viability (ChaGo-K-1; first compound 0.02 µM): 0.539
- relative viability (ChaGo-K-1; first compound 0.06325 µM): 0.376
- relative viability (ChaGo-K-1; first compound 0.2 µM): 0.143
- relative viability (HCC-827; first compound 0.002 µM): 0.217
- relative viability (HCC-827; first compound 0.006325 µM): 0.262
- relative viability (HCC-827; first compound 0.02 µM): 0.219
- relative viability (HCC-827; first compound 0.06325 µM): 0.259
- relative viability (HCC-827; first compound 0.2 µM): 0.117
- relative viability (NCI-H1792; first compound 0.002 µM): 0.737
- relative viability (NCI-H1792; first compound 0.006325 µM): 0.619
- relative viability (NCI-H1792; first compound 0.02 µM): 0.722
- relative viability (NCI-H1792; first compound 0.06325 µM): 0.361
- relative viability (NCI-H1792; first compound 0.2 µM): 0.242
- relative viability (NCI-H2085; first compound 0.002 µM): 0.219
- relative viability (NCI-H2085; first compound 0.006325 µM): 0.254
- relative viability (NCI-H2085; first compound 0.02 µM): 0.207
- relative viability (NCI-H2085; first compound 0.06325 µM): 0.277
- relative viability (NCI-H2085; first compound 0.2 µM): 0.266
- relative viability (HCC-366; first compound 0.002 µM): 0.615
- relative viability (HCC-366; first compound 0.006325 µM): 0.576
- relative viability (HCC-366; first compound 0.02 µM): 0.652
- relative viability (HCC-366; first compound 0.06325 µM): 0.0301
- relative viability (HCC-366; first compound 0.2 µM): 0.0393
- relative viability (NCI-H1355; first compound 0.002 µM): 0.678
- relative viability (NCI-H1355; first compound 0.006325 µM): 0.656
- relative viability (NCI-H1355; first compound 0.02 µM): 0.473
- relative viability (NCI-H1355; first compound 0.06325 µM): 0.414
- relative viability (NCI-H1355; first compound 0.2 µM): 0.153
- relative viability (NCI-H2228; first compound 0.002 µM): 0.423
- relative viability (NCI-H2228; first compound 0.006325 µM): 0.387
- relative viability (NCI-H2228; first compound 0.02 µM): 0.103
- relative viability (NCI-H2228; first compound 0.06325 µM): 0.096
- relative viability (NCI-H2228; first compound 0.2 µM): 0.101
